{"source": "paper PMC7247319", "about": "“The mitochondria-targeted peptide SS-31 binds lipid bilayers and modulates surface electrostatics as a key component of its mechanism of action” (The Journal of Biological Chemistry, 2020)", "test_system": "LUVs containing 20% TOCL or 20% POPG", "assay": "ANS fluorescence reporter of surface potential of model membranes", "conditions": "increasing [peptide]/[lipid]eff, 20% TOCL or 20% POPG LUVs", "description": "Figure 3. SS-31 binding and surface electrostatics. A, binding isotherms. Peptide was titrated with LUVs of the indicated composition (20% TOCL, [SS-31] = 7.5 μM and 20% POPG, [SS-31] = 3.8 μM) at 30-nmol total lipid increments in the presence of different concentrations of added KCl. Values shown are means ± S.D. (error bars) (n = 3), and lines show data fits based on Equation S3. […] B and C, effect of SS-31 binding on surface charge. Measurements of ζ (B) and ANS fluorescence (C) are shown as a function of [SS-31]/[lipid]^eff for membranes containing 20% TOCL and 20% POPG as indicated. Values shown are means ± S.D. (error bars) (n = 3).\nTo continue this analysis, we determined the relationship between SS-31 binding and surface electrostatics by two complementary approaches. […] As an independent technique, we measured the effect of SS-31 on surface electrostatics using 1-anilinonaphthalene-8-sulfonic acid (ANS), a fluorescent reporter whose binding to anionic bilayers increases as the magnitude of the ψs is reduced, measured as an increase in probe emission intensity ([42]) (Fig. 3C and Fig. S9D). […]\nSteady-state fluorescence measurements were performed with a Fluorolog 3-22 spectrofluorometer (HORIBA Jobin-Yvon) equipped with photon-counting electronics, double-grating excitation and emission monochromators, automated Glan–Thompson polarizers, and a 450-watt xenon lamp. […]", "note": "Where a SMILES comes first, the peptide text is derived from it. [ ]: non-standard residue; d: D form. Dmt = Cc1cc(O)cc(C)c1C[C@H](N)C(=O)O"}
{"compound": "Cc1cc(O)cc(C)c1C[C@H](NC(=O)[C@H](N)CCCNC(=N)N)C(=O)N[C@@H](CCCCN)C(=O)N[C@@H](Cc1ccccc1)C(N)=O", "note": "[SS-31, D-Arg-2′6′-dimethyl-Tyr-Lys-Phe-NH2] (H-[dR][Dmt]KF-NH2)", "values": [{"measurement": "effect on ANS-detected surface potential (ψs) of anionic model membranes", "value": "saturable ANS-detected reduction in the ψs"}]}
